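Five compound concentrations were applied to cells in 96-well plates for 48 hours; endpoints were derived by simple linear interpolation of the resulting dose-response curve. Abbreviation: GI50, concentration required for 50% inhibition of growth.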 Active and inactive are the calls of the source. No stated cut-off is given here; in the data, active = GI50 up to about 1.1 µM and inactive = higher.
Experiments:
Assay in all cases: NCI anticancer screen, dose series, 48 h
[1] = system: SK-MEL-2
[2] = system: ACHN
[3] = system: OVCAR-8
[4] = system: CCRF-CEM
[5] = system: OVCAR-5
[6] = system: MDA-MB-435
[7] = system: A549
[8] = system: Hs-578T
[9] = system: SK-OV-3
[10] = system: SR
[11] = system: UACC-62
[12] = system: NCI-H522
[13] = system: NCI-H460
[14] = system: SNB-75
[15] = system: NCI-H226
[16] = system: NCI/ADR-RES
[17] = system: UACC-257
[18] = system: COLO 205
[19] = system: SF-539
[20] = system: PC-3
[21] = system: HT-29
[22] = system: EKVX
[23] = system: 786-0
[24] = system: IGROV-1
[25] = system: A498
[26] = system: HOP-92
[27] = system: M14
[28] = system: OVCAR-4
[29] = system: SF-295
[30] = system: SNB-19
[31] = system: KM12
[32] = system: SN12C
[33] = system: Malme-3M
[34] = system: MOLT-4
[35] = system: OVCAR-3
[36] = system: U-251
[37] = system: RPMI-8226
[38] = system: MDA-N
[39] = system: SK-MEL-5
[40] = system: UO-31
[41] = system: CAKI-1
[42] = system: SW-620
[43] = system: HL-60
[44] = system: SF-268
[45] = system: RXF 393
[46] = system: LOX IMVI
[47] = system: T47D
[48] = system: MCF7
[49] = system: NCI-H23
[50] = system: DU-145
[51] = system: TK-10
[52] = system: BT-549
[53] = system: HOP-62
[54] = system: HCT-116
[55] = system: HCT-15
[56] = system: HCC 2998
[57] = system: K562
[58] = system: SK-MEL-28
[59] = system: MDA-MB-231

Measured: GI50

COc1ccc(NC(=O)CSC(=O)c2ccccc2)c(SCCSSCCSc2cc(OC)ccc2NC(=O)CSC(=O)c2ccccc2)c1
> 100 µM: [55]
inactive: [1] 27.9 µM | [2] > 100 µM | [3] > 100 µM | [4] 79.6 µM | [5] > 100 µM | [6] > 100 µM | [7] > 100 µM | [8] > 100 µM | [9] 41.5 µM | [10] 3.75 µM | [11] > 100 µM | [12] > 100 µM | [13] 4.62 µM | [14] > 100 µM | [15] > 100 µM | [16] > 100 µM | [17] > 100 µM | [18] 11 µM | [19] > 100 µM | [20] > 100 µM | [21] > 100 µM | [22] 72.9 µM | [23] > 100 µM | [24] 67.5 µM | [25] > 100 µM | [26] 84.9 µM | [27] 15.7 µM | [28] 6.44 µM | [29] > 100 µM | [30] > 100 µM | [31] 8.07 µM | [32] > 100 µM | [33] 69.3 µM | [34] 3.5 µM | [35] 9.57 µM | [36] > 100 µM | [37] > 100 µM | [38] > 100 µM | [39] > 100 µM | [40] 73.6 µM | [41] 18.2 µM | [42] > 100 µM | [43] 4.22 µM | [44] 67.5 µM | [45] > 100 µM | [46] 20.7 µM | [47] 28.7 µM | [48] 66.5 µM | [49] 73.3 µM | [50] > 100 µM | [51] > 100 µM | [52] > 100 µM | [53] > 100 µM | [54] 48.8 µM

COc1cc(C)cc2c1c(=O)c1ccccc1n2C
36.4 µM: [55]
inactive: [1] 15.9 µM | [2] 36 µM | [3] 40.1 µM | [4] 24.4 µM | [5] 34.8 µM | [6] 35.4 µM | [7] 40.4 µM | [8] 48.3 µM | [9] 60 µM | [10] 22.1 µM | [11] 33.7 µM | [56] 45.7 µM | [12] 34 µM | [13] 32.7 µM | [14] 41.7 µM | [57] 18.2 µM | [15] 33.5 µM | [16] 33.8 µM | [17] 40.2 µM | [18] 27.2 µM | [19] 20.2 µM | [58] 42.6 µM | [20] 29.2 µM | [21] 28.7 µM | [22] 55.3 µM | [23] 38.5 µM | [24] 42.1 µM | [25] 43.3 µM | [26] 31.4 µM | [27] 34.7 µM | [28] 35.3 µM | [29] 20.8 µM | [30] 54.8 µM | [31] 34.4 µM | [32] 37.5 µM | [33] 39.7 µM | [34] 31.3 µM | [35] 37.6 µM | [36] 33.9 µM | [37] 19.7 µM | [38] 19 µM | [39] 25 µM | [41] 54.8 µM | [42] 46.2 µM | [43] 33.7 µM | [44] 49.7 µM | [59] 53.5 µM | [45] 28.3 µM | [46] 16.8 µM | [48] 16.4 µM | [49] 40.8 µM | [50] 49.3 µM | [51] 56.4 µM | [52] 37.9 µM | [53] 41.4 µM | [54] 30 µM

CC(=O)c1cc2ccccc2oc1=O [3-ACETYLCOUMARIN]
> 100 µM: [55]
inactive: [1] > 100 µM | [2] > 100 µM | [3] > 100 µM | [4] > 100 µM | [5] > 100 µM | [6] > 100 µM | [7] > 100 µM | [8] > 100 µM | [10] > 100 µM | [56] > 100 µM | [12] > 100 µM | [13] > 100 µM | [14] > 100 µM | [57] > 100 µM | [15] > 100 µM | [16] > 100 µM | [17] > 100 µM | [18] > 100 µM | [19] > 100 µM | [58] > 100 µM | [20] > 100 µM | [21] > 100 µM | [22] > 100 µM | [23] > 100 µM | [24] > 100 µM | [25] > 100 µM | [26] 48.8 µM | [27] > 100 µM | [28] > 100 µM | [29] > 100 µM | [30] > 100 µM | [31] > 100 µM | [32] > 100 µM | [33] > 100 µM | [34] > 100 µM | [35] > 100 µM | [36] > 100 µM | [37] > 100 µM | [38] > 100 µM | [39] > 100 µM | [40] 92.3 µM | [41] > 100 µM | [42] > 100 µM | [43] > 100 µM | [44] > 100 µM | [59] > 100 µM | [45] > 100 µM | [46] > 100 µM | [48] 36.2 µM | [49] > 100 µM | [50] > 100 µM | [51] > 100 µM | [52] > 100 µM | [53] > 100 µM | [54] > 100 µM

Source: ChEMBL document CHEMBL1201862, “PubChem BioAssay data set” (2004)
